# Patent US20240083933A1, “DISACCHARIDES FOR TREATING BONE DISEASES” (UNIVERSITE DE PICARDIE JULES VERNE, priority 2020, published 2024)
# Legend:
# [1] = test system: HOb cells; test: Cytotoxicity, MTT test; format: cell-based, human; conditions: 30 μM, culture or mineralizing medium, D2, D4, D7, D14
# Experimental: In order to study the toxicity of DP2, cell viability was determined using the MTT test (3-(4,5-dimethyl-2-thiazolyl)-2,5-diphenyl-2H-tetrazolium bromide). The HOb cells were seeded in 48-well plates (10,000 cells per well), two days later the cells were treated with DP2 30 μM and the MTT test was carried out on D2, D4, 7 and D14 post-treatment.
# After washing the cells with DMEM (Dulbecco's Modified Eagle Medium) without phenol red, 250 μl of the diluted MTT solution were added to each well and the plate is incubated at 37° C. with 5% CO2 for 1 hour. The amount of MTT reduced in formazan is proportional to living cells. The purple formazan crystals were solubilized in 220 μl of DMSO and after stirring to homogenize the coloration, the absorbance was measured at 560 nm (Envision, PerkinElmer). The cytotoxicity was assessed by comparing the cell viability between the control group and the experimental group.
# (§1) Before determining whether our molecule alters the survival of osteoblastic cells, its cytotoxicity was tested on the HOb cells by the MTT and WST-1 tests. The cells were treated with DP2 at 30 μM with the culture medium (Ctrl) or the mineralizing medium (Min) for 2, 4, 7 and 14 days (D).
# [2] = test system: bone defects in the skull of rats; test: Cranial bone defect model with implanted support; format: in vivo; set-up: key to BMD / BV/TV: =: no difference; N/A: not applicable; *p ≤ 0.05; **p ≤ 0.01; ***p ≤ 0.001
# Experimental: The Sprague-Dawley rats are provided by Janvier Labs (Le Genest-Saint-Isle, France) and housed in the PLATAN animal facility of the UPJV. The rats were maintained under a 12-hour day-night cycle, at a temperature of 22±2° C. and 50% humidity.
# In order to assess the osteoinductive capacity of the disaccharide via the acceleration of the phenomenon of bone reconstruction and to determine the concentration of the optimal DP2 molecule, and the nature of the most adapted support under the physiological conditions of the fracture consolidation operation (inflammatory reaction, cellular activity), 2 bone defects were made in the skull of rats.
# Three different types of supports were tested and two different concentrations of DP2.
# In order to reduce the number of used rats, two bone defects were made per rat; one defect was left blank and was used as an internal control for each rat. Thus, the support-only group is considered the control of the experiment. […] For the support-only condition, the latter is mixed with sterile saline solution.
# After being assigned to one of the 12 groups shown above, the rat was anesthetized using IsoVet (isoflurane) in the mask (5% in the induction and 2 to 3% in maintenance dose). After 5 min, a nociception test was performed by pinching the paw or tail of the animal to check the effectiveness of the anesthesia. On the workstation, a shaving and a disinfection with vetedine were then carried out next to the incision.
# A local anesthesia was also carried out with 7 mg/kg of 2% lidocaine (20 mg/mL) diluted to 5 mg/ml.
# On the workstation, the incision of the skin with a 15 blade cold scalpel along the midline was performed, followed by the detachment of the subcutaneous tissues. Then, the incision along the midline and the lifting and lateral displacement of the periosteum were made. […] Saline solution was used during the milling steps. The implantation of the support, depending on the group, on the left side was made; the right side, without support, was used as a control to assess the effect of the lesion and the natural repair processes without the presence of support. The periosteum was put back in place and sutured with 7/0 skin suture. The skin was also put back in place and closed with 4/0 skin suture.
# The rat was injected with buprenorphine at a dose of 0.05 mg/kg subcutaneously as an analgesic. After awakening, the rat was returned to its conventional housing conditions, by putting 1 rat per cage. The animals were supervised daily and animal welfare monitoring was carried out.
# [3] = test system: HOb cells; test: Cytotoxicity, WST-1 test; format: cell-based, human; conditions: 30 μM, culture or mineralizing medium, D2, D4, D7, D14
# Experimental: The toxicity of DP2 has also been studied by another cell viability test: WST-1 (a tetrazolium salt). The HOb cells were seeded in 48-well plates (10,000 cells per well), two days later, the cells were treated with DP2 30 μM and the WST-1 test was carried out on D2, D4, D7 and D14 post-treatment.
# At the end of the treatment, 100 μl of the diluted WST-1 solution (Roche Diagnostics) was added to each well and the plate is incubated at 37° C. with 5% CO2 for 1 h. The cell proliferation induces an increase in the activity of mitochondrial dehydrogenases, which cleaves the tetrazolium salt into formazan. The amount of formazan dye was quantified by measuring the absorbance of dye at 450 nm (Envision, PerkinElmer). The results are expressed as percentage of viability in comparison to the untreated control condition.
# as §1
# [4] = Bio-oss support + DP2R2 3 mM vs Bio-oss only, D 14
# [5] = Bio-oss support + DP2R2 3 mM vs Bio-oss only, D 29
# [6] = Bio-oss support + DP2R2 3 mM vs Bio-oss only, D 63
# [7] = Bio-oss support + DP2R2 3 mM vs Bio-oss only, D 91
# [8] = Bio-oss support + DP2R2 9 mM vs Bio-oss only, D 14
# [9] = Bio-oss support + DP2R2 9 mM vs Bio-oss only, D 29
# [10] = Bio-oss support + DP2R2 9 mM vs Bio-oss only, D 63
# [11] = Bio-oss support + DP2R2 9 mM vs Bio-oss only, D 91
# [12] = Collagen support + DP2R2 3 mM vs Collagen only, D 14
# [13] = Collagen support + DP2R2 3 mM vs Collagen only, D 29
# [14] = Collagen support + DP2R2 3 mM vs Collagen only, D 63
# [15] = Collagen support + DP2R2 3 mM vs Collagen only, D 91
# [16] = Collagen support + DP2R2 9 mM vs Collagen only, D 14
# [17] = Collagen support + DP2R2 9 mM vs Collagen only, D 29
# [18] = Collagen support + DP2R2 9 mM vs Collagen only, D 63
# [19] = Collagen support + DP2R2 9 mM vs Collagen only, D 91
# [20] = MBCP support + DP2R2 3 mM vs MBCP only, D 14
# [21] = MBCP support + DP2R2 3 mM vs MBCP only, D 29
# [22] = MBCP support + DP2R2 3 mM vs MBCP only, D 63
# [23] = MBCP support + DP2R2 3 mM vs MBCP only, D 91
# [24] = MBCP support + DP2R2 9 mM vs MBCP only, D 14
# [25] = MBCP support + DP2R2 9 mM vs MBCP only, D 29
# [26] = MBCP support + DP2R2 9 mM vs MBCP only, D 63
# [27] = MBCP support + DP2R2 9 mM vs MBCP only, D 91
structure (smiles),measurement,setting,value
"CCCO[C@H]1OC(CO)[C@@H](O[C@@H]2OC(CO)[C@@H](O)C(O)C2NC(C)=O)C(O)C1OC(C)=O (stereo partly drawn) [DP2, n-propyl, 2-O-acetyl-α-D-Glucopyranoside, 4-O-(2-acetamido-2-deoxy-β-D-glucopyranosyl)]","cell viability, MTT test",[1],no significant difference
same,BMD,[2]; [4],=
same,BV/TV,[2]; [4],=
same,BMD,[2]; [5],=
same,BV/TV,[2]; [5],=
same,BMD,[2]; [6],=
same,BV/TV,[2]; [6],=
same,BMD,[2]; [7],=
same,BV/TV,[2]; [7],=
same,BMD,[2]; [8],=
same,BV/TV,[2]; [8],=
same,BMD,[2]; [9],=
same,BV/TV,[2]; [9],=
same,BMD,[2]; [10],=
same,BV/TV,[2]; [10],=
same,BMD,[2]; [11],=
same,BV/TV,[2]; [11],=
same,BMD,[2]; [12],↑*
same,BV/TV,[2]; [12],=
same,BMD,[2]; [13],=
same,BV/TV,[2]; [13],=
same,BMD,[2]; [14],=
same,BV/TV,[2]; [14],=
same,BMD,[2]; [15],=
same,BV/TV,[2]; [15],=
same,BMD,[2]; [16],=
same,BV/TV,[2]; [16],=
same,BMD,[2]; [17],=
same,BV/TV,[2]; [17],=
same,BMD,[2]; [18],=
same,BV/TV,[2]; [18],=
same,BMD,[2]; [19],=
same,BV/TV,[2]; [19],=
same,BMD,[2]; [20],=
same,BV/TV,[2]; [20],=
same,BMD,[2]; [21],↑*
same,BV/TV,[2]; [21],=
same,BMD,[2]; [22],↑*
same,BV/TV,[2]; [22],=
same,BMD,[2]; [23],↑***
same,BV/TV,[2]; [23],=
same,BMD,[2]; [24],=
same,BV/TV,[2]; [24],=
same,BMD,[2]; [25],↑*
same,BV/TV,[2]; [25],=
same,BMD,[2]; [26],↑***
same,BV/TV,[2]; [26],=
same,BMD,[2]; [27],↑*
same,BV/TV,[2]; [27],=
same,bone mineralization,"[2]; collagen+DP2 [3 mM], D14",increases the bone mineralization
same,"in-vivo toxic effect (survival, infection, hematoma, necrosis at defect sites)","[2]; rats, 3 months after implantation",does not have any in-vivo toxic effect
same,bone mineralization relative MBCP alone,"[2]; the 2 MBCP+DP2 groups (3 mM, 9 mM), from D29 post-surgery",increase the bone mineralization
same,"cell viability, WST-1 test",[3],no significant difference
